System: diabetes model rats induced by STZ
Test: von Frey test in streptozotocin-induced diabetic neuropathy model rats
Type: in vivo, rat
Conditions: vs STZ control group; for suppression effect of neuropathy (pain threshold, von Frey test): p value under 0.001%; for analgesic effect (pain threshold, threshold of the escape reaction of limb, von Frey test): first day of the measurement (first dose)
Experimental: By use of male rats with the weight of more than 160 g, 50 mg/kg of streptozotocin (STZ, Sigma-Aldrich Co.) was administered thereto intravenously at the dose of 2 mL/kg to prepare the diabetes model rats induced by STZ (Malcangio M. et al., Pain, 1998). Animals with the blood sugar level of more than 200 mg/dL were adopted as diabetes models. For the measurements of the blood sugar level, the blood (2 μL) collected from the tail vein was measured by use of a measurement chip (Glutest Sensor, Arkray, Inc.) and a portable instrument for measuring blood sugar of Glutest PRO R (Model GT-1661, Arkray, Inc.).
The pain threshold was measured by carrying out the von Frey test on both right and left foot pats of the rats by use of Dynamic Planter Aesthesiometer (Model No. 37400, Ugo Basile, Inc.), and its maximum pressure was set to be 30.0 g, and the arriving time to the maximum pressure was set to be 40 seconds. Eight days after the administration of STZ, the individuals with the pain threshold of higher than a certain level were selected and divided into the groups so that the measured pain thresholds might become even in each group. To the diabetes model rats induced by STZ was administered continuously for one week either 30 mg/kg of suplatast tosylate intraperitoneally or 100 mg/kg of the same orally, and the intraperitoneally administered group and the orally administered group were produced respectively. The diabetes model rats induced by STZ to which solvent (distilled water) was administered orally were designated to the STZ control group. Moreover, the animals of no treatment, i.e. no administration of STZ, to which solvent (distilled water) was administered orally were used as the normal control group. On the 1st, 4th and 7th days after the administration, were measured the pain thresholds of the right and left foot pats for each of the group (8 rats/group), and the analgesic effect was estimated by the threshold of the escape reaction of limb (the total of pain threshold value both of the right and left foot pats). The pain thresholds were measured from 1 to 1.5 hours after the administration, respectively. The Student's test, which is a test for every 2 groups, was applied to the significant difference test of the average value, and the significant level were shown by the following indications:
## (Normal control group vs. STZ control group): p value under 0.001%, and
** (STZ control group vs. orally administered group or intraperitoneally administered group): p value under 0.001%
The orally administered group and the intraperitoneally administered group were compared with the STZ control groups, respectively. Moreover, the STZ control groups were compared with the normal control groups, and the establishments of the diabetes neuropathy model were respectively judged.

CCOCC(O)COc1ccc(NC(=O)CC[S+](C)C)cc1.Cc1ccc(S(=O)(=O)[O-])cc1 (racemic) [suplatast tosylate, (±)-[2-[4-(3-Ethoxy-2-hydroxypropoxy)phenylcarbamoyl]-ethyl]dimethylsulfonium p-toluenesulfonate]
suppression effect of neuropathy (pain threshold, von Frey test) (30 mg/kg intraperitoneal daily, 4th day): significant suppression effects of neuropathy | suppression effect of neuropathy (pain threshold, von Frey test) (30 mg/kg intraperitoneal daily, 7th day): significant suppression effects of neuropathy | analgesic effect (pain threshold, threshold of the escape reaction of limb, von Frey test) (30 mg/kg intraperitoneal): analgesic effects were not found | suppression effect of neuropathy (pain threshold, von Frey test) (100 mg/kg oral daily, 4th day): significant suppression effects of neuropathy | suppression effect of neuropathy (pain threshold, von Frey test) (100 mg/kg oral daily, 7th day): significant suppression effects of neuropathy | analgesic effect (pain threshold, threshold of the escape reaction of limb, von Frey test) (100 mg/kg oral): analgesic effects were not found

Reference: patent publication US8247458B2, “Therapeutic agent for diabetic neuropathy” (Taiho Pharmaceutical Co., Ltd., priority 2006, dated 2012)
